Test results: publication PMC2791543 (Cancer cell, 2009)

Legend:
[1] = target: αvβ5 integrin (Homo sapiens, UniProt P06756+P18084); assay: ELISA affinity measurement on purified αvβ5 integrin; format: binding; conditions: compared with iRGD
[2] = target: αvβ3 integrin (Homo sapiens, UniProt P05106+P06756); assay: ELISA affinity measurement on purified αvβ3 integrin; format: binding; conditions: compared with iRGD
[3] = tested on: PPC1 cells; assay: Inhibition of CRGDK phage binding to PPC1 cells; format: cell-based, human
[4] = tested on: de novo pancreatic ductal adenocarcinoma; assay: In vivo peptide homing in PDAC mice; conditions: FAM-labeled peptide, approximately 200 µg, 2 hrs circulation
[5] = target: T1, Neuropilin-1 (Rattus norvegicus, UniProt Q9QWJ9); assay: competition ELISA
T1 chain: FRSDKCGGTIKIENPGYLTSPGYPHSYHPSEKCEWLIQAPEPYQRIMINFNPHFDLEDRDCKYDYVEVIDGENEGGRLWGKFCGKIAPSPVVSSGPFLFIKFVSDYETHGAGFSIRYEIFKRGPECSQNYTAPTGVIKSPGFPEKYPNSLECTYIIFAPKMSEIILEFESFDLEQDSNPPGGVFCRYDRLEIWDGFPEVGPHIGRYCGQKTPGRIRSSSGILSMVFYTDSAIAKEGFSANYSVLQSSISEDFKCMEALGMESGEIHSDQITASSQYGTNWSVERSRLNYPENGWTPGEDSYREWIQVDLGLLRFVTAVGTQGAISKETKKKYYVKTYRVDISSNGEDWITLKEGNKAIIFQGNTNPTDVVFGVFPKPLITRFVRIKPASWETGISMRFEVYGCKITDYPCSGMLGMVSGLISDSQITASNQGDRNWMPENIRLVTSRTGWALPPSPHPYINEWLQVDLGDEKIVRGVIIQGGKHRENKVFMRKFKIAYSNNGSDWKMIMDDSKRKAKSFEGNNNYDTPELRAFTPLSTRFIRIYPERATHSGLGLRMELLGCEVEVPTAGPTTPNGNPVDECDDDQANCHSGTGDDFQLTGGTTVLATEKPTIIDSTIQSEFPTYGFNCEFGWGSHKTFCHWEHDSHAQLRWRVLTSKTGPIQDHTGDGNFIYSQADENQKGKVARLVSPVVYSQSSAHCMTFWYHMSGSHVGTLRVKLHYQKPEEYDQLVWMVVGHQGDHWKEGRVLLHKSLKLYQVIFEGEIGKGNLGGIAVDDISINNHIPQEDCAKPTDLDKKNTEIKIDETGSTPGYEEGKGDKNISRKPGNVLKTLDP

Sequence of αvβ3 integrin (P06756 31-889 limits assumed): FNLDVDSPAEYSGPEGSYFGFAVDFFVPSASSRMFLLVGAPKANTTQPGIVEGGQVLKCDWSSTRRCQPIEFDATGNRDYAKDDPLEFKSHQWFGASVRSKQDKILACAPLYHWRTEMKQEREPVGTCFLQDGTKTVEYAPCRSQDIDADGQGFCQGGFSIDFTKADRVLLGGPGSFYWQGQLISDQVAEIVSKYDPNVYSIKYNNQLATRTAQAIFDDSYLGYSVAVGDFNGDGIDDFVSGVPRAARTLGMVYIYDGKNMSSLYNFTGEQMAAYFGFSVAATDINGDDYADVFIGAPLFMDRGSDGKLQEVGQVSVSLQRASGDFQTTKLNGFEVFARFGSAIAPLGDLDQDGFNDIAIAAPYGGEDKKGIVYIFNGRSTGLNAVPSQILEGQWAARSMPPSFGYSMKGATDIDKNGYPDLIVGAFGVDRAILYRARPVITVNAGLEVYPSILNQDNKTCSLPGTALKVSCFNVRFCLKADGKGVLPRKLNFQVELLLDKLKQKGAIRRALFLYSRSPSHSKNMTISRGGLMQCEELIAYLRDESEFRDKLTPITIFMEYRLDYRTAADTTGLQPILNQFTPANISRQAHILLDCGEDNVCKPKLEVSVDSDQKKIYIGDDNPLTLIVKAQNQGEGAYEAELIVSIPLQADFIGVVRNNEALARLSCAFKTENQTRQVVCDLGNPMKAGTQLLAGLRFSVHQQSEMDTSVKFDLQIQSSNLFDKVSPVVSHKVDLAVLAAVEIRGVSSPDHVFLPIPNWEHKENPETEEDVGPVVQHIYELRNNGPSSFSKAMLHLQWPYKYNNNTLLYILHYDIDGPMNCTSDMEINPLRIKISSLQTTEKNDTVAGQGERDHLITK
Sequence of αvβ3 integrin (P06756 891-1048 limits assumed): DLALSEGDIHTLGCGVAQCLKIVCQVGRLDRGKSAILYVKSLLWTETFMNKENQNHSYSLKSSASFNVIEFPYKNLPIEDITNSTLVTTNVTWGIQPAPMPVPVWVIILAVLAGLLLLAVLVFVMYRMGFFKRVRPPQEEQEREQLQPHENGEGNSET
Sequence of αvβ3 integrin (P05106 27-788): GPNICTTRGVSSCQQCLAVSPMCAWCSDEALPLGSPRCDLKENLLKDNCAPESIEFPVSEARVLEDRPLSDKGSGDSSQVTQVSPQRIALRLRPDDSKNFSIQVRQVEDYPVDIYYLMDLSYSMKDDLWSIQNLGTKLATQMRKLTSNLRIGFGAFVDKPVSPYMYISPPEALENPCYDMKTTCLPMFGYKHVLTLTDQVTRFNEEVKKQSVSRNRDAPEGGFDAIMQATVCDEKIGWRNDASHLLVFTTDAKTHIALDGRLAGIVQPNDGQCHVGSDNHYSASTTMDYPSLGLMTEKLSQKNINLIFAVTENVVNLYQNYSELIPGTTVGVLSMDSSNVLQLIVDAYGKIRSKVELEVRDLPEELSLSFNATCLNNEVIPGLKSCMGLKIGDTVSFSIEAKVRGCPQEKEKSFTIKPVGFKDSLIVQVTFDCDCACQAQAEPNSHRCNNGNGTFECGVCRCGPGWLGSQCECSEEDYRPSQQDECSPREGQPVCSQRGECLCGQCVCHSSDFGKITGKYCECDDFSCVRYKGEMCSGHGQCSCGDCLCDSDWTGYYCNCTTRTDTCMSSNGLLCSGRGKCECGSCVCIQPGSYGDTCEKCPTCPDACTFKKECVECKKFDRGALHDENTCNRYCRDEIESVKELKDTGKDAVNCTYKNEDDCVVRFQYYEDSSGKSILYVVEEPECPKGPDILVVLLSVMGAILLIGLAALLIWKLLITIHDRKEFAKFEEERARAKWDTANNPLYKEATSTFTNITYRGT
Sequence of αvβ5 integrin (P06756 31-889 limits assumed): as the sequence (P06756 31-889 limits assumed) above
Sequence of αvβ5 integrin (P06756 891-1048 limits assumed): as the sequence (P06756 891-1048 limits assumed) above
Sequence of αvβ5 integrin (P18084 24-799): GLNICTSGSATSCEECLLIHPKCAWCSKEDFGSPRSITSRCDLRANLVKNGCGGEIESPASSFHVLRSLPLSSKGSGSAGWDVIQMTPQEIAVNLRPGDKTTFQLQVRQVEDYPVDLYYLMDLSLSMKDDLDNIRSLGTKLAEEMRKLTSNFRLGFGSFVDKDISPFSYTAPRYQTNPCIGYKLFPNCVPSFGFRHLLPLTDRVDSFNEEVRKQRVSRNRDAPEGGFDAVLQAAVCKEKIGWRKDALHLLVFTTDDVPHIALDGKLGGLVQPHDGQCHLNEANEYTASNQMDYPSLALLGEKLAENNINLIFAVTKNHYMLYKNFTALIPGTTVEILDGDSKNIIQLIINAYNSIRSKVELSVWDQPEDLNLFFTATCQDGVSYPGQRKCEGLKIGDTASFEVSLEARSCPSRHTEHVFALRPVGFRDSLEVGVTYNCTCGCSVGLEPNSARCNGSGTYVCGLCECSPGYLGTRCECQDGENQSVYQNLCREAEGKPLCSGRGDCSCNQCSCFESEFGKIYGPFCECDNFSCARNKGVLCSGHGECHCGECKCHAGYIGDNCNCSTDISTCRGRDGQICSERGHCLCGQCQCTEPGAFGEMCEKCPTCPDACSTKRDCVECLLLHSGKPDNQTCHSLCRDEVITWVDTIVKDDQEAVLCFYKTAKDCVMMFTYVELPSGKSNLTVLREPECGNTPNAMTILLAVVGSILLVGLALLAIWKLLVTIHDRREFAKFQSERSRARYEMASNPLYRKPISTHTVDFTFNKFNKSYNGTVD

## CRGDC
[1]
  affinity for αvβ5, by ability to block iRGD binding: in the same range
[2]
  affinity for αvβ3, by ability to block iRGD binding: in the same range

## RPARPAR
[3]
  inhibition of CRGDK phage binding to PPC1 cells by peptide: inhibited

## CRGEKGPDC [iRGE]
[4]
  tumor fluorescence after i.v. injection: minimal tumor fluorescence

## CRGDK
[5]
  Kd: 1400 nM
